Source: publication PMC9911596 (Nature Communications, 2023)

Target: T1, Vtc1/Vtc3/Vtc4 complex (VTC complex) (Saccharomyces cerevisiae, UniProt P47075+Q02725, P47075:Y22F/P47075:K26A/P47075:K133A)
T1 construct: full-length subunits co-expressed in Expi293F; Vtc1 C-terminal HA, Vtc3 N-terminal 3xFlag, Vtc4 C-terminal 2xStrep; detergent-purified; 3:1:1 pentamer; with Vacuolar transporter chaperone complex subunit 1
T1 sequence (P47075 1-721 Y22F/K26A/K133A): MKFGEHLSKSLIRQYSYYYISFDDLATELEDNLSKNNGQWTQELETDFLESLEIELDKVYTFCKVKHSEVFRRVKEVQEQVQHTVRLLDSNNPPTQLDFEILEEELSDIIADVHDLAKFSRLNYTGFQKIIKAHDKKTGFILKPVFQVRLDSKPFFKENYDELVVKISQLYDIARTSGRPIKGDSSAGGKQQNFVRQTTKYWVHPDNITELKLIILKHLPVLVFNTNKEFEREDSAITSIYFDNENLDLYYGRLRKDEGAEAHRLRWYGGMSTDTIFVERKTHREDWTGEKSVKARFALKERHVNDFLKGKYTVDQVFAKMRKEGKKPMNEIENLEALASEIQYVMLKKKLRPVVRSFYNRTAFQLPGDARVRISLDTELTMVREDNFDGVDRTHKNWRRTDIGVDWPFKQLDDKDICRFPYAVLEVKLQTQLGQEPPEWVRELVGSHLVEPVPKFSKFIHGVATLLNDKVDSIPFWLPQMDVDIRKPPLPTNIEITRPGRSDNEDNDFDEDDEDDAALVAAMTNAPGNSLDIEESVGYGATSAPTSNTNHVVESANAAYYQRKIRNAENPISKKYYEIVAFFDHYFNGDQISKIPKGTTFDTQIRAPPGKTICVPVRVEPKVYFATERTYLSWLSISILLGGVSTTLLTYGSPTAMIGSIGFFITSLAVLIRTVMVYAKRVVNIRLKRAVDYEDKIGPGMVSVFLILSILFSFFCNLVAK
T1 sequence (Q02725 1-835): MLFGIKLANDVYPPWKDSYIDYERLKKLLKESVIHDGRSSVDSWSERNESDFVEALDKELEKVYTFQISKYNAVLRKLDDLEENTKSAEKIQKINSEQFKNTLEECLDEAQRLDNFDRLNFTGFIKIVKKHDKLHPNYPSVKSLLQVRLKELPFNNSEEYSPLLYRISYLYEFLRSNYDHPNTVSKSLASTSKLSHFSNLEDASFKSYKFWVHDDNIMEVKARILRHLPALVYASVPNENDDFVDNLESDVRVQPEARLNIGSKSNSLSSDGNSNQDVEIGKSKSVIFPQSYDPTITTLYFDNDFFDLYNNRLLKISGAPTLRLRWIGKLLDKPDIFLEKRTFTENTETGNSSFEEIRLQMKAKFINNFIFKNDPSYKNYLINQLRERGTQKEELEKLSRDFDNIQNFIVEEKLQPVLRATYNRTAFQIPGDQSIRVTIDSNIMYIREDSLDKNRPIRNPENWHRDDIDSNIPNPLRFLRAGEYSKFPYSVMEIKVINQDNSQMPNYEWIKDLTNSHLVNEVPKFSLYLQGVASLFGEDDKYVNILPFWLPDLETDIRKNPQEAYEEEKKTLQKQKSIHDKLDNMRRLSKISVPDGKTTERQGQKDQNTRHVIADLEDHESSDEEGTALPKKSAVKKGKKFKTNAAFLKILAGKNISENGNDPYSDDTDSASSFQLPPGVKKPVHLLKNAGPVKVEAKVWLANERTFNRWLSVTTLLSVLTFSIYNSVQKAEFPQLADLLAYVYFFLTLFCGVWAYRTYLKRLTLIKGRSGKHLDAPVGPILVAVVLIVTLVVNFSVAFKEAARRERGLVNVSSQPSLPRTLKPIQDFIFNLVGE
T1 sequence (P40046 2-129 partner): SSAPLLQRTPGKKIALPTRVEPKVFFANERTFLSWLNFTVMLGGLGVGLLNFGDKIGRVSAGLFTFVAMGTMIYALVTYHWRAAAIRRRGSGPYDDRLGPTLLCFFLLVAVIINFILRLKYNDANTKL
Experiment: polyP synthesis, TBE-PAGE
Format: biochemical
Settings: activator; 15 mM ATP, 10 mM MgCl2, 1 mM MnCl2, 0.5 mM pyrophosphate, 27 °C, 4 h; SPX PBC mutant

O=P(O)(O)O[C@H]1[C@H](OP(=O)(O)O)[C@@H](OP(=O)(O)O)[C@H](OP(=O)(O)O)[C@@H](OP(=O)(O)O)[C@H]1OP(=O)(O)O [InsP6]
polyP synthesis, TBE-PAGE: both reduced InsP6-stimulated polyP synthesis
